From patent US9840501B2, “Morpholin-pyridine derivatives” (Hoffmann-La Roche Inc., priority 2014, dated 2017)

Tests used:
mouse TAAR1 = mouse TAAR1 (Mus musculus (Mouse), UniProt Q923Y8); assay: Radioligand binding assay on mouse TAAR1; conditions: mouse TAAR1, membranes of stably transfected HEK-293 cells; first value of the pair; read-out: Ki (μM) mouse/rat: mouse
Experimental: (§1) For the construction of expression plasmids the coding sequences of human, rat and mouse TAAR 1 were amplified from genomic DNA essentially as described by Lindemann et al.. The Expand High Fidelity PCR System (Roche Diagnostics) was used with 1.5 mM Mg^2+ and purified PCR products were cloned into pCR2.1-TOPO cloning vector (Invitrogen) following the instructions of the manufacturer. PCR products were subcloned into the pIRESneo2 vector (BD Clontech, Palo Alto, Calif.), and expression vectors were sequence verified before introduction in cell lines.
(§2) For the generation of stably transfected cell lines HEK293 cells were transfected with the pIRESneo2 expression plasmids containing the TAAR coding sequences (described above) with Lipofectamine 2000 (Invitrogen) according to the instructions of the manufacturer, and 24 hrs post transfection the culture medium was supplemented with 1 mg/ml G418 (Sigma, Buchs, Switzerland). After a culture period of about 10 d clones were isolated, expanded and tested for responsiveness to trace amines (all compounds purchased from Sigma) with the cAMP Biotrak Enzyme immunoassay (EIA) System (Amersham) following the non-acetylation EIA procedure provided by the manufacturer.
Radioligand Binding Assay on Mouse TAAR1
(§3) Membrane Preparation and Radioligand Binding.
(§4) Cells were released from culture flasks using trypsin/EDTA, harvested, washed twice with ice-cold PBS (without Ca^2+ and Mg^2+), pelleted at 1,000 rpm for 5 min at 4° C., frozen and stored at −80° C. Frozen pellets were suspended in 20 ml HEPES-NaOH (20 mM, pH 7.4) containing 10 mM EDTA and homogenized with a Polytron (PT 6000, Kinematica) at 14′000 rpm for 20 s. The homogenate was centrifuged at 48,000×g for 30 min at 4° C. Subsequently, the supernatant was removed and discarded, and the pellet resuspended in 20 ml HEPES-NaOH (20 mM, pH 7.4) containing 0.1 mM EDTA using the Polytron (20 s at 14′000 rpm). This procedure was repeated and the final pellet resuspended in HEPES-NaOH containing 0.1 mM EDTA and homogenized using the Polytron. Typically, aliquots of 2 ml membrane portions were stored at −80° C. With each new membrane batch the dissociation constant (Kd) was determined via a saturation curve. […] Nonspecific binding was defined as the amount of ^3[H]—(S)-4-[(ethyl-phenyl-amino)-methyl]-4,5-dihydro-oxazol-2-ylamine bound in the presence of 10 μM unlabeled ligand. All compounds were tested at a broad range of concentrations (10 pM to 10 μM) in duplicates. […] The 96 deep well plates were incubated for 1 hr at 4° C. Incubations were terminated by rapid filtration through Unifilter-96 plates (Packard Instrument Company) and glass filters GF/C (Perkin Elmer) presoaked for 1 hr in polyethylenimine (0.3%) and washed 3 times with 1 ml of cold binding buffer. After addition of 45 μl of Microscint 40 (PerkinElmer) the Unifilter-96 plate was sealed and after 1 hr the radioactivity counted using a TopCount Microplate Scintillation Counter (Packard Instrument Company).

rat TAAR1 = rat TAAR1 (Rattus norvegicus (Rat), UniProt Q923Y9); assay: Radioligand binding assay on rat TAAR1; conditions: rat TAAR1, membranes of stably transfected HEK-293 cells; second value of the pair; read-out: Ki (μM) mouse/rat: rat
Experimental: as §1, §2
Radioligand Binding Assay on Rat TAAR1
as §3
as §4, with “1′000” for “1,000”, “48′000×g” for “48,000×g”

Chain of rat TAAR1 (Q923Y9 whole entry): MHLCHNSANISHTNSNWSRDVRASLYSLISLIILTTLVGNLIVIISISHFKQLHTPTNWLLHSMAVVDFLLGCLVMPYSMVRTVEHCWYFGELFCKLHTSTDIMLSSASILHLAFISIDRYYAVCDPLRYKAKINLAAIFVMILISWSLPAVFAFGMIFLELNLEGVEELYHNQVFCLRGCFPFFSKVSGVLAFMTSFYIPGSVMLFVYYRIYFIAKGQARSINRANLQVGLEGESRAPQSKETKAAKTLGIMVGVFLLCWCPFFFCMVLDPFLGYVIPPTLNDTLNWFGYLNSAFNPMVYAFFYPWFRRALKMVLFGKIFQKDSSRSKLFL
Chain of mouse TAAR1 (Q923Y8 whole entry): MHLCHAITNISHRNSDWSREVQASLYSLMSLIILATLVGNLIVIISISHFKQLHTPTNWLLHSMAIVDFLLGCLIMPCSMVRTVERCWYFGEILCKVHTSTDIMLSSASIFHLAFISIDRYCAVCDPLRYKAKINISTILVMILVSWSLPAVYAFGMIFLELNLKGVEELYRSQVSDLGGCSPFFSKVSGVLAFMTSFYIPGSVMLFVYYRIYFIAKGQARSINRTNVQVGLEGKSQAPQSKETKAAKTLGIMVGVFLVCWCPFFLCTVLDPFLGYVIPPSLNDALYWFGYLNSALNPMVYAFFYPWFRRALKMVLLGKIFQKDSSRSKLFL

Compound	Ki (mouse TAAR1)	Ki (rat TAAR1)
CCc1ncc(C(=O)Nc2ccc([C@@H]3CNCCO3)nc2)cn1 [Example 37, 2-Ethyl-N-[6-[(2S)-morpholin-2-yl]-3-pyridyl]pyrimidine-5-carboxamide]	0.139 µM	1.47 µM
CC(C)c1cc(C(=O)Nc2ccc([C@@H]3CNCCO3)nc2)[nH]n1 [Example 38, 3-Isopropyl-N-[6-[(2S)-morpholin-2-yl]-3-pyridyl]-1H-pyrazole-5-carboxamide]	0.0263 µM	0.0727 µM
CCCc1n[nH]c(C(=O)Nc2ccc([C@@H]3CNCCO3)nc2)c1Cl [Example 39, 4-Chloro-N-[6-[(2S)-morpholin-2-yl]-3-pyridyl]-3-propyl-1H-pyrazole-5-carboxamide]	0.007 µM	0.0146 µM
O=C(Nc1ccc([C@@H]2CNCCO2)nc1)c1[nH]nc(C2CC2)c1Cl [Example 40, 4-Chloro-3-cyclopropyl-N-[6-[(2S)-morpholin-2-yl]-3-pyridyl]-1H-pyrazole-5-carboxamide]	0.0089 µM	0.0428 µM
O=C(Nc1ccc([C@@H]2CNCCO2)nc1)Nc1cccc(C(F)(F)F)c1 [Example 42, 1-[6-[(2S)-Morpholin-2-yl]-3-pyridyl]-3-[3-(trifluoromethyl)phenyl]urea]	0.0038 µM	0.003 µM
Cc1n[nH]c(C(=O)Nc2ccc([C@@H]3CNCCO3)nc2)c1Cl [Example 44, 4-Chloro-3-methyl-N-[6-[(2S)-morpholin-2-yl]-3-pyridyl]-1H-pyrazole-5-carboxamide]	0.0239 µM	0.443 µM
Cc1cn[nH]c1C(=O)Nc1ccc([C@@H]2CNCCO2)nc1 [Example 45, 4-Methyl-N-[6-[(2S)-morpholin-2-yl]-3-pyridyl]-1H-pyrazole-5-carboxamide]	0.162 µM	1.13 µM
CCCc1c(Cl)c(C(=O)Nc2ccc([C@@H]3CNCCO3)nc2)nn1C [Example 46, 4-Chloro-1-methyl-N-[6-[(2S)-morpholin-2-yl]-3-pyridyl]-5-propyl-pyrazole-3-carboxamide]	0.0188 µM	0.651 µM
Brc1ccc(Nc2ccc([C@H]3CNCCO3)nc2)nc1 [Example 47, N-(5-Bromo-2-pyridyl)-6-[(2R)-morpholin-2-yl]pyridin-3-amine]	0.0039 µM	0.165 µM
CCCc1c(Cl)c(C(=O)Nc2ccc([C@H]3CNCCO3)nc2)nn1C [Example 48, 4-Chloro-1-methyl-N-[6-[(2R)-morpholin-2-yl]-3-pyridyl]-5-propyl-pyrazole-3-carboxamide]	0.0199 µM	1.37 µM
O=C(Nc1ccc([C@H]2CNCCO2)nc1)c1ccc(C(F)(F)F)cc1 [Example 53, N-[6-[(2R)-Morpholin-2-yl]-3-pyridyl]-4-(trifluoromethyl)benzamide]	0.0061 µM	0.0718 µM
CCc1ncc(C(=O)Nc2ccc([C@H]3CNCCO3)nc2)cn1 [Example 57, 2-Ethyl-N-[6-[(2R)-morpholin-2-yl]-3-pyridyl]pyrimidine-5-carboxamide]	0.673 µM	2.4 µM
CC(C)c1cc(C(=O)Nc2ccc([C@H]3CNCCO3)nc2)[nH]n1 [Example 58, 3-Isopropyl-N-[6-[(2R)-morpholin-2-yl]-3-pyridyl]-1H-pyrazole-5-carboxamide]	0.0373 µM	0.685 µM
CCCc1n[nH]c(C(=O)Nc2ccc([C@H]3CNCCO3)nc2)c1Cl [Example 59, 4-Chloro-N-[6-[(2R)-morpholin-2-yl]-3-pyridyl]-3-propyl-1H-pyrazole-5-carboxamide]	0.0063 µM	0.021 µM
O=C(Nc1ccc([C@H]2CNCCO2)nc1)c1[nH]nc(C2CC2)c1Cl [Example 60, 4-Chloro-3-cyclopropyl-N-[6-[(2R)-morpholin-2-yl]-3-pyridyl]-1H-pyrazole-5-carboxamide]	0.0096 µM	0.0448 µM
O=C(Nc1ccc([C@H]2CNCCO2)nc1)Nc1cccc(C(F)(F)F)c1 [Example 62, 1-[6-[(2R)-Morpholin-2-yl]-3-pyridyl]-3-[3-(trifluoromethyl)phenyl]urea]	0.0035 µM	0.0077 µM
Cc1n[nH]c(C(=O)Nc2ccc([C@H]3CNCCO3)nc2)c1Cl [Example 64, 4-Chloro-3-methyl-N-[6-[(2R)-morpholin-2-yl]-3-pyridyl]-1H-pyrazole-5-carboxamide]	0.018 µM	1.57 µM
CCc1n[nH]c(C(=O)Nc2ccc([C@H]3CNCCO3)nc2)c1C [Example 66, (R)-3-Ethyl-4-methyl-N-(6-(morpholin-2-yl)pyridin-3-yl)-1H-pyrazole-5-carboxamide]	0.0113 µM	0.0534 µM
CCc1n[nH]c(C(=O)Nc2ccc([C@@H]3CNCCO3)nc2)c1C [Example 67, (S)-3-Ethyl-4-methyl-N-(6-(morpholin-2-yl)pyridin-3-yl)-1H-pyrazole-5-carboxamide]	0.0147 µM	0.27 µM

Results, then the compound that gave them:

Ki (mouse TAAR1)	Ki (rat TAAR1)	Compound
0.0474 µM	0.0838 µM	O=C(Nc1ccc([C@@H]2CNCCO2)nc1)c1[nH]nc(C(F)(F)F)c1Cl [Example 43, 4-Chloro-N-[6-[(2S)-morpholin-2-yl]-3-pyridyl]-3-(trifluoromethyl)-1H-pyrazole-5-carboxamide]
0.0052 µM	0.066 µM	FC(F)(F)c1ccc(Nc2ccc([C@H]3CNCCO3)nc2)nc1 [Example 49, N-[6-[(2R)-Morpholin-2-yl]-3-pyridyl]-5-(trifluoromethyl)pyridin-2-amine]
0.005 µM	0.122 µM	FC(F)(F)c1cccc(Nc2ccc([C@H]3CNCCO3)nc2)n1 [Example 50, N-[6-[(2R)-Morpholin-2-yl]-3-pyridyl]-6-(trifluoromethyl)pyridin-2-amine]
0.0039 µM	0.212 µM	O=C(Nc1ccc([C@H]2CNCCO2)nc1)c1ccc(Cl)cc1 [Example 51, 4-Chloro-N-[6-[(2R)-morpholin-2-yl]-3-pyridyl]benzamide]
0.0064 µM	0.0221 µM	O=C(Nc1ccc([C@H]2CNCCO2)nc1)c1cccc(C(F)(F)F)c1 [Example 55, N-[6-[(2R)-Morpholin-2-yl]-3-pyridyl]-3-(trifluoromethyl)benzamide]
0.0075 µM	0.0334 µM	O=C(Nc1ccc([C@H]2CNCCO2)nc1)c1ccc(OCC(F)(F)F)nc1 [Example 56, N-[6-[(2R)-Morpholin-2-yl]-3-pyridyl]-6-(2,2,2-trifluoroethoxy)pyridine-3-carboxamide]
0.0495 µM	0.0613 µM	O=C(Nc1ccc([C@H]2CNCCO2)nc1)c1[nH]nc(C(F)(F)F)c1Cl [Example 63, 4-Chloro-N-[6-[(2R)-morpholin-2-yl]-3-pyridyl]-3-(trifluoromethyl)-1H-pyrazole-5-carboxamide]
0.344 µM	4.47 µM	Cc1cn[nH]c1C(=O)Nc1ccc([C@H]2CNCCO2)nc1 [Example 65, 4-Methyl-N-[6-[(2R)-morpholin-2-yl]-3-pyridyl]-1H-pyrazole-5-carboxamide]
